The supplement of paper PMC5908809

How the values were obtained:
[1] = test system: normal NK cells expanded with K562-aAPC; test: percent inhibition of viability; higher = more inhibition; conditions: 72 h, IL-2 2.5 ng/mL
Experimental: (§1)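 Drug sensitivity and resistance testing on K562-aAPC-expanded normal NK cells: 5 concentrations (10-fold steps over a 10,000-fold range), 72 h at 37 °C, viability by CellTiter-Glo normalised to DMSO and benzethonium chloride controls; DSS from the fitted curve.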

[2] = test system: normal NK cells expanded with K562-aAPC; test: drug sensitivity score (DSS) (DSS units); higher = more sensitive; extreme values may be limits of the assay; conditions: 72 h; IL-2 2.5 ng/mL
Experimental: as §1

[3] = test system: normal primary NK cells, pool 1 (3 donors) (IL-2 2.5 ng/mL); test: percent inhibition of viability; higher = more inhibition; conditions: 72 h
YT (IL-2 2.5 ng/mL) [4] = test: as above; conditions: 72 h
KAI3 (IL-2 2.5 ng/mL) [5] = test: as above; conditions: 72 h
IMC-1 (IL-2 20 ng/mL) [6] = test: as above; conditions: 72 h
[7] = test system: normal primary NK cells, pool 3 (3 donors) (IL-2 2.5 ng/mL); test: as above; conditions: 72 h
KHYG-1 (IL-2 2.5 ng/mL) [8] = test: as above; conditions: 72 h
NKL (IL-2 2.5 ng/mL) [9] = test: as above; conditions: 72 h
[10] = test system: normal primary NK cells, pool 2 (3 donors) (IL-2 2.5 ng/mL); test: as above; conditions: 72 h
NK-YS (IL-2 2.5 ng/mL) [11] = test: as above; conditions: 72 h
SNK-6 (IL-2 2.5 ng/mL) [12] = test: as above; conditions: 72 h
[13] = test system: normal primary NK cells, pool 1 (3 donors), resting (IL-2 0 ng/mL); test: as above; conditions: 72 h
NK-92 (IL-2 2.5 ng/mL) [14] = test: as above; conditions: 72 h
DERL-7 (IL-2 2.5 ng/mL) [15] = test: as above; conditions: 72 h
[16] = test system: normal primary NK cells, pool 1 (3 donors) (IL-2 2.5 ng/mL); test: drug sensitivity score (DSS) (DSS units); higher = more sensitive; extreme values may be limits of the assay; conditions: 72 h
YT (IL-2 2.5 ng/mL) [17] = test: as above; conditions: 72 h
KAI3 (IL-2 2.5 ng/mL) [18] = test: as above; conditions: 72 h
IMC-1 (IL-2 20 ng/mL) [19] = test: as above; conditions: 72 h
[20] = test system: normal primary NK cells, pool 3 (3 donors) (IL-2 2.5 ng/mL); test: as above; conditions: 72 h
KHYG-1 (IL-2 2.5 ng/mL) [21] = test: as above; conditions: 72 h
NKL (IL-2 2.5 ng/mL) [22] = test: as above; conditions: 72 h
[23] = test system: normal primary NK cells, pool 2 (3 donors) (IL-2 2.5 ng/mL); test: as above; conditions: 72 h
NK-YS (IL-2 2.5 ng/mL) [24] = test: as above; conditions: 72 h
SNK-6 (IL-2 2.5 ng/mL) [25] = test: as above; conditions: 72 h
[26] = test system: normal primary NK cells, pool 1 (3 donors), resting (IL-2 0 ng/mL); test: as above; conditions: 72 h
NK-92 (IL-2 2.5 ng/mL) [27] = test: as above; conditions: 72 h
DERL-7 (IL-2 2.5 ng/mL) [28] = test: as above; conditions: 72 h

CN[C@@H](C)C(=O)N[C@H](C(=O)N1CCC[C@H]1c1nc(C(=O)c2ccc(F)cc2)cs1)C1CCCCC1 [LCL161] (max concentration tested 25000 nM)
percent inhibition of viability [%]
Conditions	2.5 nM	25 nM	250 nM	2500 nM	25000 nM
DERL-7 (IL-2 2.5 ng/mL) [15]	3.1	13	11.3	36.6	64.2
IMC-1 (IL-2 20 ng/mL) [6]	-0.09	4.35	9.97	0.82	31.3
KAI3 (IL-2 2.5 ng/mL) [5]	-3.88	-6.89	-0.05	26.9	67.2
KHYG-1 (IL-2 2.5 ng/mL) [8]	-3.69	-2.27	43.7	87.9	86.8
NK-92 (IL-2 2.5 ng/mL) [14]	-9.41	4.44	14.3	35.9	87.5
NK-YS (IL-2 2.5 ng/mL) [11]	-6.78	-9.82	-8.28	-8.9	20.8
NKL (IL-2 2.5 ng/mL) [9]	-0.58	12.2	1.43	5.86	46.8
SNK-6 (IL-2 2.5 ng/mL) [12]	9.58	4.06	-3.23	-1.7	42.3
YT (IL-2 2.5 ng/mL) [4]	4.24	0.05	5.12	15.8	49.9
[1]	3.9	9.45	17.1	42	71.6
[3]	-2.53	-6.03	25.8	58	91
[7]	-5.71	1.98	19.5	51.1	75.2
[10]	-10.3	4.59	24.6	55.9	80.5
[13]	-36.7	-17.7	-2.19	43.8	88.3

Conditions	drug sensitivity score
DERL-7 (IL-2 2.5 ng/mL) [28]	8.62
IMC-1 (IL-2 20 ng/mL) [19]	1.5
KAI3 (IL-2 2.5 ng/mL) [18]	7.35
KHYG-1 (IL-2 2.5 ng/mL) [21]	21.5
NK-92 (IL-2 2.5 ng/mL) [27]	9.07
NK-YS (IL-2 2.5 ng/mL) [24]	0.39
NKL (IL-2 2.5 ng/mL) [22]	3.42
SNK-6 (IL-2 2.5 ng/mL) [25]	1.99
YT (IL-2 2.5 ng/mL) [17]	4.58
[2]	10.4
[16]	14
[20]	12
[23]	13.6
[26]	10.4
